From US6642216B2, “Isoprenoid pathway inhibitors for stimulating bone growth” (ZymoGenetics Corporation, priority 1996, dated 2003)

Key:
BMP-2 promoter = test: ABA assay: BMP-2 promoter-luciferase reporter in 2T3-BMP-2-LUC osteoblast cells; type: cell-based, mouse
Protocol: These transformed cells are then evaluated for the production of the reporter gene product; compounds that activate the BMP promoter will drive production of the reporter protein, which can be readily assayed.
The cells were cultured using α-MEM, 10% FCS with 1% penicillin/streptomycin and 1% glutamine (“plating medium”), and were split 1:5 once per week. For the assay, the cells were resuspended in a plating medium containing 4% FCS, plated in microtiter plates at a concentration of 5×10^3 cells (in 50 μl)/well, and incubated for 24 hours at 37° C. in 5% CO2. To initiate the assay, 50 μl of the test compound or the control in DMSO was added at 2× concentration to each well, so that the final volume was 100 μl. The final serum concentration was 2% FCS, and the final DMSO concentration was 1%.
The treated cells were incubated for 24 hours at 37° C. and 5% CO2. The medium was then removed, and the cells were rinsed three times with PBS. After removal of excess PBS, 25 μl of 1× cell culture lysing reagent (Promega #E153A) was added to each well and incubated for at least ten minutes. Optionally, the plates/samples could be frozen at this point. To each well was added 50 μl of luciferase substrate (Promega #E152A; 10 ml Promega luciferase assay buffer per 7 mg Promega luciferase assay substrate). Luminescence was measured on an automated 96-well luminometer, and was expressed as either picograms of luciferase activity per well or as picograms of luciferase activity per microgram of protein.
Alternatively, the reactivity of a compound to be tested can be compared directly to a negative control containing no compound.

[1] = system: serum response element (SRE)-luciferase reporter gene / CRE-luciferase reporter gene; test: negative control OBSRE (SRE-luciferase) and/or glucagon (CRE-luciferase) assays; type: cell-based, murine
From the text: In the negative control OBSRE assay, a murine osteoblast cell line, such as CCC-4 expressing a serum response element (SRE)-luciferase reporter gene is used (see WO96/07733). In the negative control glucagon assay, a glucagon receptor-positive BHK cell expressing a CRE-luciferase reporter gene is used (see U.S. Pat. No. 5,698,672).

murine calvariae = conditions: reports by R. G. G. Russell and colleagues; cited from earlier work
[2] = Experiment 2, 0.097656 μM, 0.038085 μg/ml
[3] = Experiment 2, 0.195312 μM, 0.076171 μg/ml
[4] = Experiment 2, 0.390625 μM, 0.152343 μg/ml
[5] = Experiment 2, 0.78125 μM, 0.304687 μg/ml
[6] = Experiment 2, 1.5625 μM, 0.609375 μg/ml
[7] = Experiment 2, 3.125 μM, 1.21875 μg/ml
[8] = Experiment 2, 6.25 μM, 2.4375 μg/ml
[9] = Experiment 2, 12.5 μM, 4.875 μg/ml
[10] = Experiment 2, 25 μM, 9.75 μg/ml
[11] = Experiment 2, 50 μM, 19.5 μg/ml

dose-dependent stimulatory effect in control assays [1]: not in control assays
SMILES: CC[C@H](C)C(=O)O[C@H]1CCC=C2C=C[C@H](C)[C@H](CC[C@@H]3C[C@@H](O)CC(=O)O3)[C@H]21 [Mevastatin, mevastatin]
dose-dependent stimulatory effect in the ABA assay (BMP-2 promoter): dose-dependent stimulatory effect
% 59-0008 Response (BMP-2 promoter; Experiment 1, 0.195312 μg/ml): 25.840%
Fold increase over negative control (BMP-2 promoter; Experiment 1, 0.195312 μg/ml): 2.144 fold
% 59-0008 Response (BMP-2 promoter; Experiment 1, 0.390625 μg/ml): 15.650%
Fold increase over negative control (BMP-2 promoter; Experiment 1, 0.390625 μg/ml): 1.693 fold
% 59-0008 Response (BMP-2 promoter; Experiment 1, 0.78125 μg/ml): 34.520%
Fold increase over negative control (BMP-2 promoter; Experiment 1, 0.78125 μg/ml): 2.528 fold
% 59-0008 Response (BMP-2 promoter; Experiment 1, 1.5625 μg/ml): 47.630%
Fold increase over negative control (BMP-2 promoter; Experiment 1, 1.5625 μg/ml): 3.103 fold
% 59-0008 Response (BMP-2 promoter; Experiment 1, 3.125 μg/ml): 99.670%
Fold increase over negative control (BMP-2 promoter; Experiment 1, 3.125 μg/ml): 5.413 fold
% 59-0008 Response (BMP-2 promoter; Experiment 1, 6.25 μg/ml): 140.260%
Fold increase over negative control (BMP-2 promoter; Experiment 1, 6.25 μg/ml): 7.210 fold
% 59-0008 Response (BMP-2 promoter; Experiment 1, 12.5 μg/ml): 164.730%
Fold increase over negative control (BMP-2 promoter; Experiment 1, 12.5 μg/ml): 8.293 fold
% 59-0008 Response (BMP-2 promoter; Experiment 1, 25 μg/ml): 152.690%
Fold increase over negative control (BMP-2 promoter; Experiment 1, 25 μg/ml): 7.760 fold
% 59-0008 Response (BMP-2 promoter; Experiment 1, 50 μg/ml): 153.110%
Fold increase over negative control (BMP-2 promoter; Experiment 1, 50 μg/ml): 7.779 fold
% 59-0008 Response (BMP-2 promoter; Experiment 1, 100 μg/ml): 12.460%
Fold increase over negative control (BMP-2 promoter; Experiment 1, 100 μg/ml): 1.552 fold
% 59-0008 Response (BMP-2 promoter; Experiment 1, 200 μg/ml): −1.600%
Fold increase over negative control (BMP-2 promoter; Experiment 1, 200 μg/ml): 0.929 fold
% 59-0008 Response (BMP-2 promoter; [2]): 2.880%
Fold increase over negative control (BMP-2 promoter; [2]): 1.1 fold
% 59-0008 Response (BMP-2 promoter; [3]): −0.090%
Fold increase over negative control (BMP-2 promoter; [3]): 0.9 fold
% 59-0008 Response (BMP-2 promoter; [4]): 0.960%
Fold increase over negative control (BMP-2 promoter; [4]): 1.0 fold
% 59-0008 Response (BMP-2 promoter; [5]): 2.370%
Fold increase over negative control (BMP-2 promoter; [5]): 1.1 fold
% 59-0008 Response (BMP-2 promoter; [6]): 9.780%
Fold increase over negative control (BMP-2 promoter; [6]): 1.6 fold
% 59-0008 Response (BMP-2 promoter; [7]): 10.970%
Fold increase over negative control (BMP-2 promoter; [7]): 1.7 fold
% 59-0008 Response (BMP-2 promoter; [8]): 36.210%
Fold increase over negative control (BMP-2 promoter; [8]): 3.4 fold
% 59-0008 Response (BMP-2 promoter; [9]): 66.010%
Fold increase over negative control (BMP-2 promoter; [9]): 5.3 fold
% 59-0008 Response (BMP-2 promoter; [10]): 71.630%
Fold increase over negative control (BMP-2 promoter; [10]): 5.7 fold
% 59-0008 Response (BMP-2 promoter; [11]): 97.420%
Fold increase over negative control (BMP-2 promoter; [11]): 7.4 fold
% 59-0008 Response (BMP-2 promoter; Experiment 2, 100 μM, 39 μg/ml): 88.860%
Fold increase over negative control (BMP-2 promoter; Experiment 2, 100 μM, 39 μg/ml): 6.9 fold
inhibition of bone resorption in murine calvariae in vitro (murine calvariae): inhibits bone resorption
